From ChEMBL document CHEMBL1697731, “Cheminformatics analysis of assertions mined from literature that describe drug-induced liver injury in different species” (Chem Res Toxicol, 2010)
*1 amine or outer side, *2 acyl side, *3 side chain or, on linkers, in order; H or OH if unused. Where a SMILES comes first, the peptide text is derived from it. Bridges are numbered along the chain shown (N, C = ends). [ ]: non-standard residue; d: D form. The star is where a group is joined. hTyr(3S-OH,4S-OH,3'-OSO3H) = N[C@H](C(=O)O)[C@H](O)[C@@H](O)c1ccc(O)c(OS(=O)(=O)O)c1; Orn(4R-OH,5R-OH) = O=C([C@H](C[C@@H](O)[C@@H](O)N[*:3])N[*:1])[*:2]; Pro(3S-OH,4S-Me) = C[C@H]1CN[C@H](C(=O)O)[C@H]1O; X1 = CCCCCOc1ccc(-c2cc(-c3ccc(C(=O)*)cc3)no2)cc1; Gln(3R-OH) = NC(=O)C[C@@H](O)[C@H](N)C(=O)O; Hyp = O=C(O)[C@@H]1C[C@@H](O)CN1

Experiments:
Hepatotoxicity [1] = assay: Literature-mined compound from Fourches et al multi-species drug-induced liver injury (DILI) dataset, effect in non-rodents
Hepatotoxicity [2] = assay: Literature-mined compound from Fourches et al multi-species drug-induced liver injury (DILI) dataset, effect in humans; conditions: human
Hepatotoxicity [3] = assay: Literature-mined compound from Fourches et al multi-species drug-induced liver injury (DILI) dataset, effect in rodents; conditions: rodentia

| Compound | Hepatotoxicity (Hepatotoxicity [1]) | Hepatotoxicity (Hepatotoxicity [2]) | Hepatotoxicity (Hepatotoxicity [3]) | Hepatotoxicity (Hepatotoxicity [1]; Liver) | Hepatotoxicity (Hepatotoxicity [2]; Liver) | Hepatotoxicity (Hepatotoxicity [3]; Liver) |
| --- | --- | --- | --- | --- | --- | --- |
| COc1cc(N)c(Cl)cc1C(=O)NC1CCN(CCCOc2ccc(F)cc2)CC1OC (stereo not drawn) [CISAPRIDE] | no drug-induced liver injury reported | drug-induced liver injury reported | no drug-induced liver injury reported |  |  |  |
| CN[C@H](CC(C)C)C(=O)N[C@H]1C(=O)N[C@@H](CC(N)=O)C(=O)N[C@H]2C(=O)N[C@H]3C(=O)N[C@H](C(=O)N[C@H](C(=O)O)c4cc(O)cc(O)c4-c4cc3ccc4O)[C@H](O)c3ccc(c(Cl)c3)Oc3cc2cc(c3O[C@@H]2O[C@H](CO)[C@@H](O)[C@H](O)[C@H]2O[C@H]2C[C@](C)(N)[C@H](O)[C@H](C)O2)Oc2ccc(cc2Cl)[C@H]1O [VANCOMYCIN] | no drug-induced liver injury reported | drug-induced liver injury reported | drug-induced liver injury reported |  |  |  |
| FC(F)OC(Cl)C(F)(F)F (stereo not drawn) [ISOFLURANE] | drug-induced liver injury reported | drug-induced liver injury reported | drug-induced liver injury reported |  |  |  |
| METHYLCOBALAMIN | no drug-induced liver injury reported | no drug-induced liver injury reported | drug-induced liver injury reported |  |  |  |
| CN(C)[C@@H]1C(O)=C(C(N)=O)C(=O)[C@@]2(O)C(O)=C3C(=O)c4c(O)ccc(Cl)c4[C@@](C)(O)[C@H]3C[C@@H]12 [CHLORTETRACYCLINE] | drug-induced liver injury reported | no drug-induced liver injury reported | drug-induced liver injury reported |  |  |  |
| CCCC(=O)Nc1ncnc2c1ncn2[C@@H]1O[C@@H]2COP(=O)(O)O[C@H]2[C@H]1OC(=O)CCC [BUCLADESINE] | drug-induced liver injury reported | drug-induced liver injury reported | drug-induced liver injury reported |  |  |  |
| COc1c(C)c2c(c(O)c1C/C=C(\C)CCC(=O)O)C(=O)OC2 [MYCOPHENOLIC ACID] | no drug-induced liver injury reported | drug-induced liver injury reported | drug-induced liver injury reported |  |  |  |
| CC(C)(C)c1ccc(C(O)CCCN2CCC(C(O)(c3ccccc3)c3ccccc3)CC2)cc1 (stereo not drawn) [TERFENADINE] | no drug-induced liver injury reported | drug-induced liver injury reported | no drug-induced liver injury reported |  |  |  |
| LACTOSE, ANHYDROUS | no drug-induced liver injury reported | no drug-induced liver injury reported | drug-induced liver injury reported |  |  |  |
| O=C(O)c1ccc(-n2nc(-c3ccccc3O)nc2-c2ccccc2O)cc1 [DEFERASIROX] | no drug-induced liver injury reported | drug-induced liver injury reported | no drug-induced liver injury reported |  |  |  |
| CC(=O)OCC1=C(C(=O)O)N2C(=O)[C@@H](NC(=O)Cc3cccs3)[C@H]2SC1 [CEPHALOTHIN] | no drug-induced liver injury reported | drug-induced liver injury reported | no drug-induced liver injury reported |  |  |  |
| Cc1nnc(NS(=O)(=O)c2ccc(N)cc2)s1 [SULFAMETHIZOLE] | no drug-induced liver injury reported | drug-induced liver injury reported | no drug-induced liver injury reported |  |  |  |
| Cc1nccn1CC1CCc2c(c3ccccc3n2C)C1=O (stereo not drawn) [ONDANSETRON] | no drug-induced liver injury reported | drug-induced liver injury reported | no drug-induced liver injury reported |  |  |  |
| OC[C@H]1O[C@@H](O[C@@H]2[C@@H](CO)O[C@](O)(CO)[C@H]2O)[C@H](O)[C@@H](O)[C@H]1O [LACTULOSE] | no drug-induced liver injury reported | drug-induced liver injury reported | drug-induced liver injury reported |  |  |  |
| OC(CNc1ccccn1)c1ccccc1 (stereo not drawn) [PHENYRAMIDOL] | no drug-induced liver injury reported | drug-induced liver injury reported | no drug-induced liver injury reported |  |  |  |
| COc1cc([C@@H]2c3cc4c(cc3[C@@H](O[C@@H]3O[C@@H]5CO[C@@H](C)O[C@H]5[C@H](O)[C@H]3O)[C@H]3COC(=O)[C@H]23)OCO4)cc(OC)c1O [ETOPOSIDE] |  |  |  | no drug-induced liver injury reported | drug-induced liver injury reported | drug-induced liver injury reported |
| C[C@@H](CN1CC(=O)NC(=O)C1)N1CC(=O)NC(=O)C1 [DEXRAZOXANE] | no drug-induced liver injury reported | no drug-induced liver injury reported | drug-induced liver injury reported |  |  |  |
| Nc1ccn([C@H]2CC[C@@H](CO)O2)c(=O)n1 [ZALCITABINE] |  |  |  | no drug-induced liver injury reported | drug-induced liver injury reported | drug-induced liver injury reported |

| Compound | Hepatotoxicity (Hepatotoxicity [1]) | Hepatotoxicity (Hepatotoxicity [2]) | Hepatotoxicity (Hepatotoxicity [3]) | Hepatotoxicity (Hepatotoxicity [1]; Liver) | Hepatotoxicity (Hepatotoxicity [2]; Liver) | Hepatotoxicity (Hepatotoxicity [3]; Liver) |
| --- | --- | --- | --- | --- | --- | --- |
| CC(N)Cc1ccccc1 (stereo not drawn) [AMPHETAMINE] | no drug-induced liver injury reported | drug-induced liver injury reported | drug-induced liver injury reported |  |  |  |
| Cc1cccc(C(C)c2cnc[nH]2)c1C (stereo not drawn) [MEDETOMIDINE] |  |  |  | drug-induced liver injury reported | drug-induced liver injury reported | no drug-induced liver injury reported |
| CCc1nc(N)nc(N)c1-c1ccc(Cl)cc1 [PYRIMETHAMINE] | no drug-induced liver injury reported | drug-induced liver injury reported | drug-induced liver injury reported |  |  |  |
| CC(=O)S[C@@H]1CC2=CC(=O)CC[C@]2(C)[C@H]2CC[C@@]3(C)[C@@H](CC[C@@]34CCC(=O)O4)[C@H]12 [SPIRONOLACTONE] | no drug-induced liver injury reported | drug-induced liver injury reported | drug-induced liver injury reported |  |  |  |
| CC(C)C(Br)C(=O)NC(N)=O (stereo not drawn) [BROMISOVALUM] | no drug-induced liver injury reported | drug-induced liver injury reported | drug-induced liver injury reported |  |  |  |
| CC1CCC(C(C)C)C(O)C1 (stereo not drawn) [MENTHOL] | no drug-induced liver injury reported | drug-induced liver injury reported | no drug-induced liver injury reported |  |  |  |
| CCN(CC)CCCC(C)Nc1c2ccc(Cl)cc2nc2ccc(OC)cc12 (stereo not drawn) [QUINACRINE] | drug-induced liver injury reported | drug-induced liver injury reported | drug-induced liver injury reported |  |  |  |
| COC(c1ccccc1)(c1ccccc1)[C@H](Oc1nc(C)cc(C)n1)C(=O)O [AMBRISENTAN] | drug-induced liver injury reported | no drug-induced liver injury reported | no drug-induced liver injury reported |  |  |  |
| C[C@]12COC(=O)C[C@@H]1CC[C@@H]1[C@@H]2CC[C@@]2(C)[C@H]1CC[C@]2(C)O [OXANDROLONE] | no drug-induced liver injury reported | no drug-induced liver injury reported | drug-induced liver injury reported |  |  |  |
| CN(C)CCOC(=O)COc1ccc(Cl)cc1 [MECLOFENOXATE] | no drug-induced liver injury reported | no drug-induced liver injury reported | drug-induced liver injury reported |  |  |  |
| CCc1oc2ccccc2c1C(=O)c1ccc(O)cc1 [BENZARONE] | no drug-induced liver injury reported | drug-induced liver injury reported | drug-induced liver injury reported |  |  |  |
| CCN(CC)C(=S)[S][Na] [DITIOCARB SODIUM] | no drug-induced liver injury reported | no drug-induced liver injury reported | drug-induced liver injury reported |  |  |  |
| CCCCCOc1ccc(-c2cc(-c3ccc(C(=O)N[C@H]4C[C@@H](O)[C@@H](O)NC(=O)[C@@H]5[C@@H](O)[C@@H](C)CN5C(=O)[C@H]([C@H](O)CC(N)=O)NC(=O)[C@H]([C@H](O)[C@@H](O)c5ccc(O)c(OS(=O)(=O)O)c5)NC(=O)[C@@H]5C[C@@H](O)CN5C(=O)[C@H]([C@@H](C)O)NC4=O)cc3)no2)cc1 [MICAFUNGIN] (X1-[Orn(4R-OH,5R-OH)]T[Hyp][hTyr(3S-OH,4S-OH,3'-OSO3H)][Gln(3R-OH)][Pro(3S-OH,4S-Me)]; lactam 1-C) | no drug-induced liver injury reported | drug-induced liver injury reported | no drug-induced liver injury reported |  |  |  |
| OC[C@@H](O)[C@@H](O)[C@H](O)[C@@H](O)CO [SORBITOL] | no drug-induced liver injury reported | drug-induced liver injury reported | drug-induced liver injury reported |  |  |  |
| NNCCc1ccccc1 [PHENELZINE] |  |  |  | no drug-induced liver injury reported | drug-induced liver injury reported | drug-induced liver injury reported |
| [H]/N=C(/N)N/C(=N/[H])NCCc1ccccc1 [PHENFORMIN] | no drug-induced liver injury reported | no drug-induced liver injury reported | drug-induced liver injury reported |  |  |  |
| CC(C)NCC(O)COc1ccc(COCCOC(C)C)cc1 (stereo not drawn) [BISOPROLOL] | no drug-induced liver injury reported | drug-induced liver injury reported | no drug-induced liver injury reported |  |  |  |
| CCCc1nc2c(C)cc(-c3nc4ccccc4n3C)cc2n1Cc1ccc(-c2ccccc2C(=O)O)cc1 | no drug-induced liver injury reported | drug-induced liver injury reported | drug-induced liver injury reported |  |  |  |
